Measurements taken from ChEMBL document CHEMBL1149081, “Identification and structure-activity relationships of ortho-biphenyl carboxamides as potent Smoothened antagonists inhibiting the Hedgehog signaling pathway” (Bioorg Med Chem Lett, 2009).

Assays:
[1] = Inhibition of Hedgehog signaling pathway in mouse TM3 cells bearing pTA-8xGli-Luc reporter construct assessed as transcriptional modulation of Gli after 48 hrs by luciferase assay; conditions: TM3, 48 h
Protein smoothened [2] = target: Protein smoothened (Homo sapiens, UniProt Q99835); assay: Antagonist activity at human Smo receptor expressed in CHO cells by [3H]Hh-Ag binding assay; format: cell-based
Sequence of Protein smoothened (Homo sapiens, UniProt Q99835) (Q99835 whole entry): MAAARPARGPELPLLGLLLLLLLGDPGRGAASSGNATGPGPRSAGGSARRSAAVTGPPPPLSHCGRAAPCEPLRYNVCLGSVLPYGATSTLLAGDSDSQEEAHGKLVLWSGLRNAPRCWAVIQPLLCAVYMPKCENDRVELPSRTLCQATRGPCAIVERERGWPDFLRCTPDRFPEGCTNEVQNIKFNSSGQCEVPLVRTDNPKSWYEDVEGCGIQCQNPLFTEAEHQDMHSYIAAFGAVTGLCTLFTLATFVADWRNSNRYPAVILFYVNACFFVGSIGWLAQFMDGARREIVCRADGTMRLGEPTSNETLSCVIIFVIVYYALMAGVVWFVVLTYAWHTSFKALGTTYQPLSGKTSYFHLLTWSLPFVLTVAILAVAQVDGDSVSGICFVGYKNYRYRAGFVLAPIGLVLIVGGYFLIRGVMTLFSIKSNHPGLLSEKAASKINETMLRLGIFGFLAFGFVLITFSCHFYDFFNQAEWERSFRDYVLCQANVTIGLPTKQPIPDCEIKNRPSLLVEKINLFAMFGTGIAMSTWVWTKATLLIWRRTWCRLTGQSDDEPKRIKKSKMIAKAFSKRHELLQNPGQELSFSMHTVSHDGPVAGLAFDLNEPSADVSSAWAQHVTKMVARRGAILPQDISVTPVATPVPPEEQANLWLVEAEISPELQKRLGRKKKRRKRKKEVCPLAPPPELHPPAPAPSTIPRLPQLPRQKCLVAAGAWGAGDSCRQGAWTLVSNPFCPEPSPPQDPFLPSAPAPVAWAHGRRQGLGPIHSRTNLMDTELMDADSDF

Protein smoothened [3] = target: Protein smoothened (Mus musculus, UniProt P56726); assay: Antagonist activity at mouse Smo receptor expressed in CHO cells by [3H]Hh-Ag binding assay; format: cell-based
Sequence of Protein smoothened (Mus musculus, UniProt P56726) (P56726 whole entry): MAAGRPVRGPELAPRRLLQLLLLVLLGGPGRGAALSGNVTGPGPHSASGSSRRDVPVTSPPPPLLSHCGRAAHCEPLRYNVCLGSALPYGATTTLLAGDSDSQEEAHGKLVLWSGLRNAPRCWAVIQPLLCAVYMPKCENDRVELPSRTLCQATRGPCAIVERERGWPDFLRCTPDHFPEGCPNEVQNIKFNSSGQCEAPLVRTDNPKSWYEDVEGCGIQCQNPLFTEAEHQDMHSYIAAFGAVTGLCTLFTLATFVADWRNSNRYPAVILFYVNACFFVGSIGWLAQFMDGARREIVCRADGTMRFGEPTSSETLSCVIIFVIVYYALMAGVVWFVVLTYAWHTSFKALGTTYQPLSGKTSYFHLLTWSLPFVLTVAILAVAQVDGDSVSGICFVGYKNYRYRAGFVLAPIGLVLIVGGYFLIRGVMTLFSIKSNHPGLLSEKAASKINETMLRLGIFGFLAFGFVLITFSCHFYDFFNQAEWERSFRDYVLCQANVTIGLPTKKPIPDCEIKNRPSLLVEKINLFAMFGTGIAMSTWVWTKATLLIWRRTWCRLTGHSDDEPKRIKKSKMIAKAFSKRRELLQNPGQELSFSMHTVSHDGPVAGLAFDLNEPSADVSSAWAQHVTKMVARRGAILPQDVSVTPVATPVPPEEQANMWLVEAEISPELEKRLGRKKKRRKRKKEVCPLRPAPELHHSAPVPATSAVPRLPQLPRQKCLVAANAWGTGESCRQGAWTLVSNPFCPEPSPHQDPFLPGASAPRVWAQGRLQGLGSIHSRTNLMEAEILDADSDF

[4] = target: T1, Microsomal triglyceride transfer protein large subunit (Homo sapiens, UniProt P55157); assay: Inhibition of MTP in human HepG2 cells assessed as apolipoprotein B production by ELISA; format: cell-based
T1 sequence (P55157 whole entry): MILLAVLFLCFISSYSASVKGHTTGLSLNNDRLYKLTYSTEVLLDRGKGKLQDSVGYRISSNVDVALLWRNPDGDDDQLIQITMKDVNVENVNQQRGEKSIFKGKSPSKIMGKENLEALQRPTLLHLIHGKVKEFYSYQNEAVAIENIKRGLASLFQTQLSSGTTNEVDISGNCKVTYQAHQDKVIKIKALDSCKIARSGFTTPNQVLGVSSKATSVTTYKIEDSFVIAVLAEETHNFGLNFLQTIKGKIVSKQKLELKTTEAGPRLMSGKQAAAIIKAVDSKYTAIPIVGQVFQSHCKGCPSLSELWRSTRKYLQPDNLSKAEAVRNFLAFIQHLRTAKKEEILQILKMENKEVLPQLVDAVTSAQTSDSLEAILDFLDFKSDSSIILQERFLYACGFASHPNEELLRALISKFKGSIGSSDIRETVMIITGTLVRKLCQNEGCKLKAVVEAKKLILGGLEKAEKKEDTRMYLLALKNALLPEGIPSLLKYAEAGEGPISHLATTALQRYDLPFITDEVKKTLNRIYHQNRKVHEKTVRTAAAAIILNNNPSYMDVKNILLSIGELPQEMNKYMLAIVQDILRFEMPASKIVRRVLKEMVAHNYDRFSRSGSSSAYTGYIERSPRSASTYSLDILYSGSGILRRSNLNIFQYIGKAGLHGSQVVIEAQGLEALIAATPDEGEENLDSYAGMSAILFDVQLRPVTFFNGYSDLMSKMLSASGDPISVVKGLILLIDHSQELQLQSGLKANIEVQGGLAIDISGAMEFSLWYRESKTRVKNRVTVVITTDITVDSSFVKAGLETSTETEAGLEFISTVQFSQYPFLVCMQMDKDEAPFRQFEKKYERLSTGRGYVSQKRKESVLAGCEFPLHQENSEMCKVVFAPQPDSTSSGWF

Compound | IC50 [1] | IC50 (Protein smoothened [2]) | IC50 (Protein smoothened [3]) | IC50 [4]
Cc1cccc(C(=O)Nc2ccc3c(c2)C[C@@H](NCc2nccs2)C3)c1-c1ccc(C(F)(F)F)cc1 | 25 nM | 30 nM | 10 nM | 
Cc1cccc(C(=O)Nc2ccc3c(c2)C[C@@H](NCc2cnc4ccccc4c2)C3)c1-c1ccc(C(F)(F)F)cc1 | 1290 nM | 210 nM | 350 nM | 
Cc1csc(CN[C@H]2Cc3ccc(NC(=O)c4cccc(C)c4-c4ccc(C(F)(F)F)cc4)cc3C2)n1 | 17 nM | 7 nM | 4 nM | 
Cc1cccc(C(=O)Nc2ccc3c(c2)C[C@@H](NCc2ccncc2)C3)c1-c1ccc(C(F)(F)F)cc1 | 150 nM | 240 nM | 190 nM | 
COC(=O)N[C@H]1Cc2ccc(NC(=O)c3cccc(C)c3-c3ccc(C(F)(F)F)cc3)cc2C1 | 2150 nM | 7520 nM | 5090 nM | 4.3 nM
CC1=C2C[C@H]3[C@@H](CC=C4C[C@@H](O)CC[C@@]43C)[C@@H]2CC[C@]12O[C@@H]1C[C@H](C)CN[C@H]1[C@H]2C [CYCLOPAMINE] | 46 nM |  |  | 
Cc1cccc(C(=O)Nc2ccc3c(c2)CC(NC(=O)c2ccccc2)C3)c1-c1ccc(C(F)(F)F)cc1 (racemic) | 600 nM |  |  | 
COC(=O)N[C@@H]1Cc2ccc(NC(=O)c3cccc(C)c3-c3ccc(C(F)(F)F)cc3)cc2C1 | 1200 nM | 3420 nM | 2480 nM | 0.9 nM
COC(=O)NC1Cc2ccc(NC(=O)c3cccc(C)c3-c3ccc(C(F)(F)F)cc3)cc2C1 (racemic) | 1330 nM | 2700 nM | 2960 nM | 
COc1ccc(CN[C@H]2Cc3ccc(NC(=O)c4cccc(C)c4-c4ccc(C(F)(F)F)cc4)cc3C2)cc1 | 360 nM | 120 nM | 93 nM | 
Cc1cccc(C(=O)Nc2ccc3c(c2)C[C@@H](Nc2ccccc2)C3)c1-c1ccc(C(F)(F)F)cc1 | 41 nM | 130 nM | 82 nM | 
Cc1cccc(C(=O)Nc2ccc3c(c2)C[C@@H](NCC2CCOC2)C3)c1-c1ccc(C(F)(F)F)cc1 (some centres not stated) | 3700 nM |  | 16700 nM | 
Cc1cccc(C(=O)Nc2ccc3c(c2)C[C@@H](NC(C)c2ccccc2)C3)c1-c1ccc(C(F)(F)F)cc1 (some centres not stated) | 88 nM | 32 nM | 29 nM | 
Cc1cccc(C(=O)Nc2ccc3c(c2)C[C@@H](NC(c2ccccc2)C(F)(F)F)C3)c1-c1ccc(C(F)(F)F)cc1 (some centres not stated) | 33 nM | 55 nM | 57 nM | 
Cc1ccc(CN[C@H]2Cc3ccc(NC(=O)c4cccc(C)c4-c4ccc(C(F)(F)F)cc4)cc3C2)o1 | 8 nM | 10 nM | 6 nM | 
Cc1cccc(C(=O)Nc2ccc3c(c2)CC(NS(=O)(=O)c2ccccc2)C3)c1-c1ccc(C(F)(F)F)cc1 (racemic) | 1250 nM |  |  | 
Cc1cccc(C(=O)Nc2ccc3c(c2)C[C@@H](NCc2ccco2)C3)c1-c1ccc(C(F)(F)F)cc1 | 23 nM |  | 14 nM | 
Cc1cccc(C(=O)Nc2ccc3c(c2)C[C@@H](NCc2scnc2C)C3)c1-c1ccc(C(F)(F)F)cc1 | 160 nM | 170 nM | 120 nM | 
Cc1cccc(C(=O)Nc2ccc3c(c2)C[C@@H](NCc2cccs2)C3)c1-c1ccc(C(F)(F)F)cc1 | 10 nM | 7 nM | 9 nM | 
Cc1cccc(C(=O)Nc2ccc3c(c2)C[C@H](NCc2nccs2)C3)c1-c1ccc(C(F)(F)F)cc1 | 4270 nM | 770 nM | 1190 nM | 
CC(=O)Nc1ccc(CN[C@H]2Cc3ccc(NC(=O)c4cccc(C)c4-c4ccc(C(F)(F)F)cc4)cc3C2)cc1 | 450 nM | 340 nM | 360 nM | 

The next lines start with the values.

IC50 [1] | IC50 (Protein smoothened [2]) | IC50 (Protein smoothened [3]) | IC50 [4] | Compound
1000 nM | 1150 nM | 1420 nM |  | O=C(Nc1ccc2c(c1)CC(NCc1ccccn1)C2)c1ccccc1-c1ccccc1 (racemic)
4950 nM |  | 2710 nM |  | O=C(Nc1ccc2c(c1)CC(NCc1ccccn1)C2)c1ccccc1-c1ccc(Cl)cc1 (racemic)
6800 nM |  | 8680 nM |  | Cc1ccc(-c2ccc(C(F)(F)F)cc2)c(C(=O)Nc2ccc3c(c2)CC(NCc2ccccn2)C3)c1 (racemic)
100 nM | 120 nM | 57 nM | 2350 nM | Cc1cccc(C(=O)Nc2ccc3c(c2)C[C@@H](NCc2ccccn2)C3)c1-c1ccc(C(F)(F)F)cc1
200 nM | 790 nM | 490 nM |  | O=C(Nc1ccc2c(c1)CC(NCc1ccccn1)C2)c1ccccc1-c1ccc(C(F)(F)F)cc1 (racemic)
93 nM |  |  |  | Cc1cccc(C(=O)Nc2ccc3c(c2)CC(NCc2ccccc2)C3)c1-c1ccc(C(F)(F)F)cc1 (racemic)
21 nM | 14 nM | 8 nM |  | Cc1cccc(C(=O)Nc2ccc3c(c2)C[C@@H](NCc2ccccc2)C3)c1-c1ccc(C(F)(F)F)cc1
4890 nM |  | 8770 nM | 3.5 nM | Cc1cccc(C(=O)Nc2ccc3c(c2)C[C@H](NCc2ccccn2)C3)c1-c1ccc(C(F)(F)F)cc1
> 5000 nM |  | > 5000 nM |  | COc1ccc(-c2ccc(C(F)(F)F)cc2)c(C(=O)Nc2ccc3c(c2)CC(NCc2ccccn2)C3)c1 (racemic)
100 nM |  | 110 nM |  | Cc1cccc(C(=O)Nc2ccc3c(c2)CC(NCc2ccccn2)C3)c1-c1ccc(C(F)(F)F)cc1 (racemic)
